{"source": "paper PMC12892976", "about": "“Alkylation-based optimization of antifungal FPPS inhibitors yields a potent, broad-spectrum lipophilic zoledronate derivative” (mBio, 2025)", "key": {"Trichophyton rubrum [1]": {"test_system": "Trichophyton rubrum", "experiment": "checkerboard drug interaction (FICI, MICc);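 on FLC MICc: simplified diagonal checkerboard screen pairing antifungals with FPPS inhibitors against Aspergillus fumigatus, with FICI calculated under the Loewe additivity model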;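 on INH MICc (FLC:INH): simplified diagonal checkerboard screen pairing azole antifungals with FPPS inhibitors, FICI calculated under the Loewe additivity model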;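 on INH MICc (ITR:INH): simplified diagonal checkerboard screen pairing azole antifungals with FPPS inhibitors, FICI calculated under the Loewe additivity model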;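 on INH MICc (KET:INH): simplified diagonal checkerboard screen pairing azole antifungals with FPPS inhibitors, FICI calculated under the Loewe additivity model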;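 on ITR MICc: simplified diagonal checkerboard screen pairing antifungals with FPPS inhibitors against Aspergillus fumigatus, with FICI calculated under the Loewe additivity model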;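 on KET MICc: simplified diagonal checkerboard screen pairing antifungals with FPPS inhibitors against Aspergillus fumigatus, with FICI calculated under the Loewe additivity model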", "type": "cell-based", "method": "(§1) Drug interactions between antifungals and FPPS inhibitors were investigated using a simplified checkerboard diagonal screening method ([45]). […] FICIs were determined according to the Loewe additivity model ([17])."}, "Fusarium oxysporum": {"test_system": "Fusarium oxysporum", "experiment": "checkerboard drug interaction (FICI, MICc)", "type": "cell-based", "method": "as §1"}, "Candida glabrata": {"test_system": "Candida glabrata", "experiment": "MIC/MFC broth microdilution (CLSI)", "method": "(§2) Antifungal susceptibility was determined by broth microdilution according to the CLSI guidelines described in M27-Ed4 ([16]). […] MFC was determined by back-plating drug-treated cultures from MIC broths onto SDA plates. The MFC was defined as the lowest concentration from which no colonies could be cultured."}, "Aspergillus flavus": {"test_system": "Aspergillus flavus", "experiment": "checkerboard drug interaction (FICI, MICc)", "type": "cell-based", "design": "INH MICc (KET:INH) / INH MICc (FLC:INH): unit not given beside the values"}, "Trichophyton rubrum [2]": {"test_system": "Trichophyton rubrum", "experiment": "MIC/MFC broth microdilution (CLSI)", "method": "as §2"}, "eight fungal species": {"test_system": "eight fungal species", "experiment": "MIC/MFC summary across the eight fungal species of Table 1", "type": "cell-based", "procedure": "The antifungal activity of these compounds was evaluated according to CLSI guidelines ([16])."}, "Aspergillus fumigatus": {"test_system": "Aspergillus fumigatus", "experiment": "checkerboard drug interaction (FICI, MICc)", "type": "cell-based", "method": "as §1"}, "Cryptococcus neoformans": {"test_system": "Cryptococcus neoformans", "experiment": "checkerboard drug interaction (FICI, MICc)", "type": "cell-based", "conditions": "for INH MICc: C. neoformans", "method": "as §1"}, "Scedosporium apiospermum": {"test_system": "Scedosporium apiospermum", "experiment": "checkerboard drug interaction (FICI, MICc)", "type": "cell-based", "method": "as §1"}}, "note": "Like-named read-outs stand apart in the source and are kept apart here."}
{"smiles": "CCCCCCCCCCn1cc[n+](CC(O)(P(=O)(O)O)P(=O)(O)O)c1", "note": "[10-ZOL, Decyl-zoledronate]", "values": [{"measurement": "bisphosphonate MICc", "setting": "Trichophyton rubrum [1]; with FLC", "result": 0.5}, {"measurement": "bisphosphonate MICc", "setting": "Trichophyton rubrum [1]; with ITR", "result": 0.5}, {"measurement": "bisphosphonate MICc", "setting": "Trichophyton rubrum [1]; with KET", "result": 0.5}, {"measurement": "bisphosphonate MICc", "setting": "Trichophyton rubrum [1]; with VOR", "result": 0.5}, {"measurement": "FICI", "setting": "Fusarium oxysporum; 5FC:10-ZOL", "result": "≥4"}, {"measurement": "FICI", "setting": "Fusarium oxysporum; AMB:10-ZOL", "result": 1.03}, {"measurement": "FICI", "setting": "Fusarium oxysporum; CAS:10-ZOL", "result": "≥4"}, {"measurement": "FICI", "setting": "Fusarium oxysporum; VOR:10-ZOL", "result": 0.5}, {"measurement": "bisphosphonate MICc", "setting": "Fusarium oxysporum; with 5FC", "result": 4}, {"measurement": "bisphosphonate MICc", "setting": "Fusarium oxysporum; with AMB", "result": 0.25}, {"measurement": "bisphosphonate MICc", "setting": "Fusarium oxysporum; with CAS", "result": 1}, {"measurement": "bisphosphonate MICc", "setting": "Fusarium oxysporum; with FLC", "result": 1}, {"measurement": "bisphosphonate MICc", "setting": "Fusarium oxysporum; with ITR", "result": 1}, {"measurement": "bisphosphonate MICc", "setting": "Fusarium oxysporum; with KET", "result": 1}, {"measurement": "bisphosphonate MICc", "setting": "Fusarium oxysporum; with VOR", "result": 2}, {"measurement": "MIC / MEC", "setting": "Candida glabrata; Candida glabrata CBS138 (ATCC 2001)", "result": 0.5, "unit": "µg/mL"}, {"measurement": "MFC", "setting": "Candida glabrata; Nakaseomyces glabratus, CBS138", "result": 1, "unit": "µg/mL"}, {"measurement": "MIC", "setting": "Candida glabrata; Nakaseomyces glabratus, CBS138", "result": 0.5, "unit": "µg/mL"}, {"measurement": "INH MICc (FLC:INH)", "setting": "Aspergillus flavus; A. flavus, MIC of the inhibitor in combination with fluconazole", "result": 0.063}, {"measurement": "INH MICc (ITR:INH)", "setting": "Aspergillus flavus; A. flavus, MIC of the inhibitor in combination with itraconazole", "result": 0.125}, {"measurement": "INH MICc (KET:INH)", "setting": "Aspergillus flavus; A. flavus, MIC of the inhibitor in combination with ketoconazole", "result": 0.125}, {"measurement": "FICI", "setting": "Aspergillus flavus; AMB:10-ZOL", "result": 2}, {"measurement": "FICI", "setting": "Aspergillus flavus; FLC:10-ZOL", "result": 0.53}, {"measurement": "FICI", "setting": "Aspergillus flavus; VOR:10-ZOL", "result": 0.37}, {"measurement": "bisphosphonate MICc", "setting": "Aspergillus flavus; with 5FC", "result": 1}, {"measurement": "bisphosphonate MICc", "setting": "Aspergillus flavus; with AMB", "result": 2}, {"measurement": "bisphosphonate MICc", "setting": "Aspergillus flavus; with CAS", "result": 2}, {"measurement": "bisphosphonate MICc", "setting": "Aspergillus flavus; with FLC", "result": 0.063}, {"measurement": "FICI", "setting": "Aspergillus flavus; with FLC, Aspergillus flavus", "result": 0.53}, {"measurement": "bisphosphonate MICc", "setting": "Aspergillus flavus; with ITR", "result": 0.125}, {"measurement": "bisphosphonate MICc", "setting": "Aspergillus flavus; with KET", "result": 0.125}, {"measurement": "bisphosphonate MICc", "setting": "Aspergillus flavus; with VOR", "result": 0.5}, {"measurement": "MFC", "setting": "Trichophyton rubrum [2]; Trichophyton rubrum", "result": 64, "unit": "µg/mL"}, {"measurement": "MIC", "setting": "Trichophyton rubrum [2]; Trichophyton rubrum", "result": 1, "unit": "µg/mL"}, {"measurement": "MIC / MEC", "setting": "Trichophyton rubrum [2]; Trichophyton rubrum R-218", "result": 2, "unit": "µg/mL"}, {"measurement": "Geometric mean MFC", "setting": "eight fungal species; across eight species", "result": 4.8, "unit": "µg/mL"}, {"measurement": "Geometric mean MIC", "setting": "eight fungal species; across eight species", "result": 1.2, "unit": "µg/mL"}, {"measurement": "MFC", "setting": "eight fungal species; across eight species, read-out: Geometric mean MFC", "result": 4.8, "unit": "µg/mL"}, {"measurement": "range of MICs across the tested fungal species", "setting": "eight fungal species; eight species", "result": "0.5 to 4", "unit": "µg/mL"}, {"measurement": "MIC", "setting": "eight fungal species; geometric mean across eight species, read-out: GM fungal MIC", "result": 1.2, "unit": "µg/mL"}, {"measurement": "MIC", "setting": "eight fungal species; read-out: Geometric mean MIC", "result": 1.2, "unit": "µg/mL"}, {"measurement": "FICI", "setting": "Aspergillus fumigatus; 5FC:10-ZOL", "result": 3}, {"measurement": "FLC MICc", "setting": "Aspergillus fumigatus; A. fumigatus, FLC:INH combination, MIC of FLC in combination with the inhibitor", "result": 8}, {"measurement": "INH MICc", "setting": "Aspergillus fumigatus; A. fumigatus, FLC:INH combination, MIC of the inhibitor in combination with FLC", "result": 0.5}, {"measurement": "ITR MICc", "setting": "Aspergillus fumigatus; A. fumigatus, ITR:INH combination, MIC of ITR in combination with the inhibitor", "result": 0.063}, {"measurement": "INH MICc", "setting": "Aspergillus fumigatus; A. fumigatus, ITR:INH combination, MIC of the inhibitor in combination with ITR", "result": 0.063}, {"measurement": "KET MICc", "setting": "Aspergillus fumigatus; A. fumigatus, KET:INH combination, MIC of KET in combination with the inhibitor", "result": 0.25}, {"measurement": "INH MICc", "setting": "Aspergillus fumigatus; A. fumigatus, KET:INH combination, MIC of the inhibitor in combination with KET", "result": 0.25}, {"measurement": "FICI", "setting": "Aspergillus fumigatus; CAS:10-ZOL", "result": 1.5}, {"measurement": "bisphosphonate MICc", "setting": "Aspergillus fumigatus; with 5FC", "result": 1}, {"measurement": "bisphosphonate MICc", "setting": "Aspergillus fumigatus; with AMB", "result": 0.25}, {"measurement": "bisphosphonate MICc", "setting": "Aspergillus fumigatus; with CAS", "result": 1}, {"measurement": "bisphosphonate MICc", "setting": "Aspergillus fumigatus; with FLC", "result": 0.5}, {"measurement": "bisphosphonate MICc", "setting": "Aspergillus fumigatus; with ITR", "result": 0.063}, {"measurement": "bisphosphonate MICc", "setting": "Aspergillus fumigatus; with KET", "result": 0.25}, {"measurement": "bisphosphonate MICc", "setting": "Aspergillus fumigatus; with VOR", "result": 0.25}, {"measurement": "INH MICc", "setting": "Cryptococcus neoformans; FLC:INH combination, MIC of the inhibitor in combination with FLC", "result": 0.125}, {"measurement": "INH MICc", "setting": "Cryptococcus neoformans; ITR:INH combination, MIC of the inhibitor in combination with ITR", "result": 0.063}, {"measurement": "INH MICc", "setting": "Cryptococcus neoformans; KET:INH combination, MIC of the inhibitor in combination with KET", "result": 0.063}, {"measurement": "bisphosphonate MICc", "setting": "Cryptococcus neoformans; with 5FC", "result": 0.5}, {"measurement": "bisphosphonate MICc", "setting": "Cryptococcus neoformans; with AMB", "result": 0.25}, {"measurement": "bisphosphonate MICc", "setting": "Cryptococcus neoformans; with CAS", "result": 0.5}, {"measurement": "bisphosphonate MICc", "setting": "Cryptococcus neoformans; with FLC", "result": 0.125}, {"measurement": "bisphosphonate MICc", "setting": "Cryptococcus neoformans; with ITR", "result": 0.063}, {"measurement": "bisphosphonate MICc", "setting": "Cryptococcus neoformans; with KET", "result": 0.063}, {"measurement": "bisphosphonate MICc", "setting": "Cryptococcus neoformans; with VOR", "result": 0.25}, {"measurement": "FICI", "setting": "Scedosporium apiospermum; 5FC:10-ZOL", "result": 2.25}, {"measurement": "FICI", "setting": "Scedosporium apiospermum; KET:10-ZOL", "result": 0.53}, {"measurement": "FICI", "setting": "Scedosporium apiospermum; VOR:10-ZOL", "result": 0.53}, {"measurement": "bisphosphonate MICc", "setting": "Scedosporium apiospermum; with 5FC", "result": 1}, {"measurement": "bisphosphonate MICc", "setting": "Scedosporium apiospermum; with AMB", "result": 2}, {"measurement": "bisphosphonate MICc", "setting": "Scedosporium apiospermum; with CAS", "result": 1}, {"measurement": "bisphosphonate MICc", "setting": "Scedosporium apiospermum; with FLC", "result": 1}, {"measurement": "bisphosphonate MICc", "setting": "Scedosporium apiospermum; with ITR", "result": 0.25}, {"measurement": "bisphosphonate MICc", "setting": "Scedosporium apiospermum; with KET", "result": 0.125}, {"measurement": "bisphosphonate MICc", "setting": "Scedosporium apiospermum; with VOR", "result": 0.125}]}
